No end group written: not given here.
Columns and labels:
[1] = tested on: insulin resistance caused by administered amylin; test: infusion into rats, reversal of amylin-induced insulin resistance; format: in vivo; settings: infusions into rats
Source text: A number of amylin antagonists have been characterized using these biological assays. The N-terminally deleted peptides ^8-37 Peptide A, ^8-37 Peptide B and ^8-32 Peptide C, were all found to compete with amylin in the receptor binding assay. […] ID. NO. 195]; ^9-37 Peptide B [SEQ. ID. NO. 27]; ^11-37 Peptide B [SEQ. ID. NO. 29]; ^18-37 Peptide B [SEQ. ID. NO. 36]; ^26 Asp^27 Val^29 Ala^8-32 Peptide C [SEQ. ID. NO. 196]; ^30 Asn^32 Tyr^8-32 Peptide C [SEQ. ID. NO. 197]; Ac-^9-32Peptide C [SEQ. ID. NO. 48]; Ac-^30 Asn^32 Tyr^9-32 Peptide C [SEQ. ID. NO. 198]; ^9-23 Peptide C^29-37 Peptide A [SEQ. ID. NO. 199]; Ac-^9-23 Peptide C^29-37 Peptide A; Adm-^9-23 Peptide C^29-37 Peptide A; Ac-^11 Arg^15 Leu^18 Arg^30 Asn^32 Tyr^9-32 Peptide C [SEQ. ID. NO. 200]; Ac-^11 Arg^18 Arg^30 Asn^32 Tyr^9-32 Peptide C [SEQ. ID. NO. 201]; Ac-^18 Arg^30 Asn^32 Tyr^9-32 Peptide C [SEQ. ID. NO. 202]. Infusions of ^8-37 Peptide B [SEQ. ID. NO. 26], ^8-32 Peptide C [SEQ. ID. NO. 47], and Ac-^11 Arg ^18 Arg^30 […] Tyr^9-32 Peptide C [SEQ. ID. NO.

[2] = tested on: insulin-stimulated glycogen synthesis in soleus muscle; test: rat soleus muscle assay; format: cell-based; settings: for amylin agonist activity as measured by the soleus muscle assay: inhibition of insulin-stimulated glycogen synthesis; for amylin antagonist activity in the soleus muscle assay: resumption of insulin-stimulated glycogen synthesis in the presence of 100 nM rat amylin
Source text: Several assays have been developed to measure amylin activity and to evaluate new compounds. A receptor binding assay as described herein may be used to screen for or to identify compounds which bind to amylin receptors and which may, therefore, be candidate amylin agonists and antagonists. The rat soleus muscle assay may be used as a secondary procedure to screen for or to evaluate and differentiate between amylin agonists and amylin antagonists. In the soleus muscle assay, amylin and amylin agonists inhibit insulin-stimulated glycogenesis. Amylin antagonists counteract this amylin inhibition which results in the recovery of insulin-stimulated glycogenesis.
Assays of biological activity of amylin preparations in the soleus muscle are performed using previously described methods (Leighton, B. and Cooper, G. J. S. (1988) Nature 335: 632-635; Cooper, G. J. S., Leighton, B., Dimitriadis, G. D., Parry-Billings, M., Kowalchuk, J. M., Howland, K., Rothbard, J. B., Willis, A. C. and Reid, K. B. M. (1988) Proc. Natl. Acad. Sci. USA 85: 7763-7766.) In summary, amylin agonist activity is assessed by measuring the inhibition of insulin-stimulated glycogen synthesis in soleus muscle in response to an amylin agonist. Amylin antagonist activity is assessed by measuring the resumption of insulin-stimulated glycogen synthesis in the presence of 100 nM rat amylin and an amylin antagonist. Concentrations of peptide dissolved in carrier-free buffers are determined by quantitative amino acid analysis, as described therein. The ability of compounds to act as antagonists in this assay is determined by measuring IC50 values. Standard errors are determined by fitting of sigmoidal dose response curves using a four parameter logistic equation (De Lean, A., Munson, P. J., Guardabasso, V. and Rodbard, D. (1988) ALLFIT, Version 2.7, National Institute of Child Health and Human Development, N.I.H. Bethesda, Md., 1 diskette).

| Substance | reversal of insulin resistance caused by administered amylin [1] | amylin agonist activity as measured by the soleus muscle assay [2] | amylin antagonist activity in the soleus muscle assay [2] |
| --- | --- | --- | --- |
| VLGKLSQELHKLQTYPRTNTGSGTP-NH2 [^8-32 Peptide C] | reverse the insulin resistance caused by administered amylin | negligible agonist activity | act as amylin antagonists |
| ^8-37 Peptide B (VTHRLAGLLSRSGGVVKNNFVPTNVGSKAF) [ID; NO; 26] | reverse the insulin resistance caused by administered amylin | negligible agonist activity | act as amylin antagonists |

Source: patent US5580953A, “Amylin antagonist peptides and uses therefor” (Amylin Pharmaceuticals, Inc., priority 1991, dated 1996)
